Experimental data from US12371436B2, “Substituted benzodiazoliums as ENaC inhibitors” (ENTERPRISE THERAPEUTICS LIMITED, priority 2016, dated 2025).

Columns and labels:
ENaC = target: T1, ENaC (Homo sapiens, UniProt P37088+P51168+P51170); experiment: Short circuit current assay to determine ENaC blocker potency in human bronchial epithelial cells; format: cell-based; settings: 50% inhibition of total amiloride-sensitive ISC, apical addition, read-out: Averages.ENaC IC50 (nM) Avg
T1 construct: host or cells: primary human bronchial epithelial cells (HBECs) differentiated at air-liquid interface
T1 sequence (P37088 1-669): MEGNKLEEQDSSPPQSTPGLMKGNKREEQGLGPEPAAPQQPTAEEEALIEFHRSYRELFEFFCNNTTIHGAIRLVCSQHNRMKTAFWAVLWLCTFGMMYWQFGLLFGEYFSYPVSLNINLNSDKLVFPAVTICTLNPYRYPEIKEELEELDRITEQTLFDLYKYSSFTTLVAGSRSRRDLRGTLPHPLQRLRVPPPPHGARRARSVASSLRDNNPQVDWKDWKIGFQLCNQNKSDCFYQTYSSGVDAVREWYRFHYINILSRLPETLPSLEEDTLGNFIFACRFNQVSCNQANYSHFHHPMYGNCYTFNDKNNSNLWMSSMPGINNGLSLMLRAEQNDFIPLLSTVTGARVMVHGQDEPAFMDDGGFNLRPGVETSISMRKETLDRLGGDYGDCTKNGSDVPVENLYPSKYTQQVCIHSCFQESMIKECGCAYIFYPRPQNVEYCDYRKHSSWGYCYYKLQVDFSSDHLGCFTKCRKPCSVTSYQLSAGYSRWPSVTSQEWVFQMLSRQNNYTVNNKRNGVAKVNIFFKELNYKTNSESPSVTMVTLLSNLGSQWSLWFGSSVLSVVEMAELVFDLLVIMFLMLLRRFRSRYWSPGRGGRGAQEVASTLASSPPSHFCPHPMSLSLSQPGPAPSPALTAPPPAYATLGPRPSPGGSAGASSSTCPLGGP
T1 sequence (P51168 1-640): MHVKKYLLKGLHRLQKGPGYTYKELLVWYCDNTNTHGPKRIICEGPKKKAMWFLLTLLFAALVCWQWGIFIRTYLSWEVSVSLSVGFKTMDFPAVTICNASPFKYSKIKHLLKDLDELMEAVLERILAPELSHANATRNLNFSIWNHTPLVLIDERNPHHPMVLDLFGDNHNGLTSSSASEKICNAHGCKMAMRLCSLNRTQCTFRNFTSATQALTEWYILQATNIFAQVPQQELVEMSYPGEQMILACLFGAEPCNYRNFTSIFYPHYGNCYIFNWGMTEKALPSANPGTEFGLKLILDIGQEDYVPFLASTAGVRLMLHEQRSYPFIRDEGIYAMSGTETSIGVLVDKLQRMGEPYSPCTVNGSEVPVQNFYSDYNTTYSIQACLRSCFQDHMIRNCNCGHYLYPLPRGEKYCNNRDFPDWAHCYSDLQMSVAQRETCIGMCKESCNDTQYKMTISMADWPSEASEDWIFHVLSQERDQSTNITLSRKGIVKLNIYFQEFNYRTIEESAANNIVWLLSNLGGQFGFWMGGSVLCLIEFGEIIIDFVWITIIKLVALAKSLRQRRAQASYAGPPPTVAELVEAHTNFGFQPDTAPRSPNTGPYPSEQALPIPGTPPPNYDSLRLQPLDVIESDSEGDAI
T1 sequence (P51170 1-649): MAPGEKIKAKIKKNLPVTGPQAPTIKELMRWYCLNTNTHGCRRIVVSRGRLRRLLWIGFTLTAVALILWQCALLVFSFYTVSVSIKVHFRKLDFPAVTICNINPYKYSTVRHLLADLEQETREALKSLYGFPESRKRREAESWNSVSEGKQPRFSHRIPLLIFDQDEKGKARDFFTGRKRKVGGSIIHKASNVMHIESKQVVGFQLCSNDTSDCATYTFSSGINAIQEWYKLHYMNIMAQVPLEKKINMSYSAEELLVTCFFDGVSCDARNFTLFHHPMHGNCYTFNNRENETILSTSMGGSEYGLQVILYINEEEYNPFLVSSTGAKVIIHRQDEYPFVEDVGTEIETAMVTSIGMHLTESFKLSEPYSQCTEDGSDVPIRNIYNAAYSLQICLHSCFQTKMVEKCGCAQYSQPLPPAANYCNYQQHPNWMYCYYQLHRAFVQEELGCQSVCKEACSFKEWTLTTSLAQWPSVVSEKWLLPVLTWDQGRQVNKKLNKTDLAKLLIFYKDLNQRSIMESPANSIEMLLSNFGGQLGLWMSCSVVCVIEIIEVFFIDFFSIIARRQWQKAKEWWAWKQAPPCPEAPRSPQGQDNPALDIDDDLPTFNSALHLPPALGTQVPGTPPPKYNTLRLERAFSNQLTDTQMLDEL
Procedure, shortened: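 Primary human bronchial epithelial cells at air-liquid interface (days 14–21) were voltage-clamped at 0 mV in Ussing chambers (Ringer, pH 7.4, 37° C.). Compounds were added apically as cumulative concentrations, then 10 μM amiloride. IC50 was taken as 50% inhibition of amiloride-sensitive ISC.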

[1] = Bronchoalveolar lavage (BAL) procedure: compound levels after intratracheal administration; format: in vivo; settings: bronchoalveolar lavage fluid (BAL), other: intratracheal, 0.1 mg/kg, rat, 0.1 mg/mL solution in 5% dextrose, 1 mL/Kg, BAL 6 hours after administration, LC/MS/MS
Protocol: Example 69—Bronchoalveolar Lavage (BAL) Procedure A 0.1 mg/mL solution of ENaC inhibitor in 5% dextrose was administered intratracheally to a rat weighing 225-250 g. A volume of 1 mL/Kg was used. After 6 hours, lungs were lavaged with 3×4 mL of sterile saline. A 1 mL aliquot was subsequently snap frozen. Lungs were excised, weighed and snap frozen. Compound levels in the BAL and lung tissue were subsequently determined using LC/MS/MS bioanalysis.

Compound | IC50 (ENaC) [nM] | concentration at 6 h [1] [ng/mL]
CCn1c(CNC(=O)c2nc3cc[nH]c3nc2N)[n+](CC)c2ccc(C(=O)NCCN(C[C@H](O)[C@@H](O)[C@H](O)[C@H](O)CO)C[C@H](O)[C@@H](O)[C@H](O)[C@H](O)CO)cc21 [Example 58, 2-[({3-amino-5H-pyrrolo[2,3-b]pyrazin-2-yl}formamido)methyl]-6-[(2-{bis[(2S,3R,4R,5R)-2,3,4,5,6-pentahydroxyhexyl]amino}ethyl)carbamoyl]-1,3-diethyl-1H-1,3-benzodiazol-3-ium] | 78 | 256
CCn1c(CNC(=O)c2nc3cc[nH]c3nc2N)[n+](CC)c2ccc(C(=O)NCC[C@H](NCCCN(C[C@H](O)[C@@H](O)[C@H](O)[C@H](O)CO)C[C@H](O)[C@@H](O)[C@H](O)[C@H](O)CO)C(N)=O)cc21 [Example 61, 2-[({3-amino-5H-pyrrolo[2,3-b]pyrazin-2-yl}formamido)methyl]-6-{[(3S)-3-[(3-{bis[(2S,3R,4R,5R)-2,3,4,5,6-pentahydroxyhexyl]amino}propyl)amino]-3-carbamoylpropyl]carbamoyl}-1,3-diethyl-1H-1,3-benzodiazol-3-ium] | 43 | 167
CCn1c(CNC(=O)c2nc3cc[nH]c3nc2N)[n+](CC)c2ccc(C(=O)NCCc3ccc(-c4ccc(CCN(C[C@H](O)[C@@H](O)[C@H](O)[C@H](O)CO)C[C@H](O)[C@@H](O)[C@H](O)[C@H](O)CO)cc4)cc3)cc21 [Example 60, 2-[({3-amino-5H-pyrrolo[2,3-b]pyrazin-2-yl}formamido)methyl]-6-({2-[4′-(2-{bis[(2S,3R,4R,5R)-2,3,4,5,6-pentahydroxyhexyl]amino}ethyl)-[1,1′-biphenyl]-4-yl]ethyl}carbamoyl)-1,3-diethyl-1H-1,3-benzodiazol-3-ium] | 22 | 176
CCn1c(CNC(=O)c2nc3cc[nH]c3nc2N)[n+](CC)c2ccc(C(=O)NCCCCc3ccc(CCC(NCCCN(C[C@H](O)[C@@H](O)[C@H](O)[C@H](O)CO)C[C@H](O)[C@@H](O)[C@H](O)[C@H](O)CO)C(N)=O)cc3)cc21 (stereo partly drawn) [Example 62, 2-[({3-amino-5H-pyrrolo[2,3-b]pyrazin-2-yl}formamido)methyl]-6-{[4-(4-{3-[(3-{bis[(2S,3R,4R,5R)-2,3,4,5,6-pentahydroxyhexyl]amino}propyl)amino]-3-carbamoylpropyl}phenyl)butyl]carbamoyl}-1,3-diethyl-1H-1,3-benzodiazol-3-ium] | 24 | 140
CCn1c(CNC(=O)c2nc3cc[nH]c3nc2N)[n+](CC)c2ccc(C(=O)N[C@H]3CC[C@H](N(C[C@H](O)[C@@H](O)[C@H](O)[C@H](O)CO)C[C@H](O)[C@@H](O)[C@H](O)[C@H](O)CO)CC3)cc21 [Example 55, 2-[({3-amino-5H-pyrrolo[2,3-b]pyrazin-2-yl}formamido)methyl]-1,3-diethyl-6-{[(1r,4r)-4-{bis[(2S,3R,4R,5R)-2,3,4,5,6-pentahydroxyhexyl]amino}cyclohexyl]carbamoyl}-1H-1,3-benzodiazol-3-ium] | 78 | 284
CCn1c(CNC(=O)c2nc3cc[nH]c3nc2N)[n+](CC)c2ccc(C(=O)N3CCC(N(C[C@H](O)[C@@H](O)[C@H](O)[C@H](O)CO)C[C@H](O)[C@@H](O)[C@H](O)[C@H](O)CO)CC3)cc21 [Example 50, 2-[({3-amino-5H-pyrrolo[2,3-b]pyrazin-2-yl}formamido)methyl]-6-(4-{bis[(2S,3R,4R,5R)-2,3,4,5,6-pentahydroxyhexyl]amino}piperidine-1-carbonyl)-1,3-diethyl-1H-1,3-benzodiazol-3-ium] | 35 | 260
CCn1c(CNC(=O)c2nc3cc[nH]c3nc2N)[n+](CC)c2ccc(C(=O)NCCOCCOCCOCCN(C[C@H](O)[C@@H](O)[C@H](O)[C@H](O)CO)C[C@H](O)[C@@H](O)[C@H](O)[C@H](O)CO)cc21 [Example 59, 2-[({3-amino-5H-pyrrolo[2,3-b]pyrazin-2-yl}formamido)methyl]-1,3-diethyl-5-{[(14S,15R,16R,17R)-14,15,16,17,18-pentahydroxy-12-[(2S,3R,4R,5R)-2,3,4,5,6-pentahydroxyhexyl]-3,6,9-trioxa-12-azaoctadecan-1-yl]carbamoyl}-1H-1,3-benzodiazol-3-ium] | 171 | 197
CCn1c(CNC(=O)c2nc3cc[nH]c3nc2N)[n+](CC)c2ccc(C(=O)N3CCC(CN(C[C@H](O)[C@@H](O)[C@H](O)[C@H](O)CO)C[C@H](O)[C@@H](O)[C@H](O)[C@H](O)CO)CC3)cc21 [Example 52, 2-[({3-amino-5H-pyrrolo[2,3-b]pyrazin-2-yl}formamido)methyl]-5-[4-({bis[(2S,3R,4R,5R)-2,3,4,5,6-pentahydroxyhexyl]amino}methyl)piperidine-1-carbonyl]-1,3-diethyl-1H-1,3-benzodiazol-3-ium] | 69 | 302
CCn1c(CNC(=O)c2nc3cc[nH]c3nc2N)[n+](CC)c2ccc(C(=O)N(C)CCCN(C[C@H](O)[C@@H](O)[C@H](O)[C@H](O)CO)C[C@H](O)[C@@H](O)[C@H](O)[C@H](O)CO)cc21 [Example 57, 2-[({3-amino-5H-pyrrolo[2,3-b]pyrazin-2-yl}formamido)methyl]-6-[(3-{bis[(2S,3R,4R,5R)-2,3,4,5,6-pentahydroxyhexyl]amino}propyl)(methyl)carbamoyl]-1,3-diethyl-1H-1,3-benzodiazol-3-ium] | 36 | 283
CCn1c(CNC(=O)c2nc3cc[nH]c3nc2N)[n+](CC)c2ccc(CCCN)cc21 [Example 29, 2-[({3-amino-5H-pyrrolo[2,3-b]pyrazin-2-yl}formamido)methyl]-6-(3-aminopropyl)-1,3-diethyl-1H-1,3-benzodiazol-3-ium] | 5 | –
CCn1c(CNC(=O)c2nc3cc[nH]c3nc2N)[n+](CC)c2ccc(C(=O)NCCCNC(=O)OC(C)(C)C)cc21 [Example 35, 2-[({3-amino-5H-pyrrolo[2,3-b]pyrazin-2-yl}formamido)methyl]-6-[(3-{[(tert-butoxy)carbonyl]amino}propyl)carbamoyl]-1,3-diethyl-1H-1,3-benzodiazol-3-ium formic acid] | 5 | –
